pEC50, pIC50: −log10 of the molar value.
What was measured:
PDK1 kinase = target: T1, PDK1 kinase (Homo sapiens, UniProt O15530); assay: PDK1 Kinase Alpha Screen Assay; format: biochemical; settings: PDK1 Kinase Alpha Screen Assay; read-out: PDK1 IC50
T1 sequence (O15530 1-556): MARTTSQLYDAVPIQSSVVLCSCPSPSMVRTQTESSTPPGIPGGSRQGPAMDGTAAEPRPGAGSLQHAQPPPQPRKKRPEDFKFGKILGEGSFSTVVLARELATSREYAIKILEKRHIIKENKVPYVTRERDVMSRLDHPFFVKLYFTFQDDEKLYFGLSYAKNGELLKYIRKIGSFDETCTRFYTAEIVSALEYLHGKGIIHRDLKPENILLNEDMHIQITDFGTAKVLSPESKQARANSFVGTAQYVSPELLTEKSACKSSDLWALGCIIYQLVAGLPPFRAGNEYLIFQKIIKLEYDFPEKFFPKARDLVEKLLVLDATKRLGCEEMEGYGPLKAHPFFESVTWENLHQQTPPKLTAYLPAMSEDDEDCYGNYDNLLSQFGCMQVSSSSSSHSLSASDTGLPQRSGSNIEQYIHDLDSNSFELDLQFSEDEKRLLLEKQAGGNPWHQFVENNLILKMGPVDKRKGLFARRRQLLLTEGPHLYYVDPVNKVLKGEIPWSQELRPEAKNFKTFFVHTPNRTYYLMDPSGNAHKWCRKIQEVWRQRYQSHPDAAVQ
Outline: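 PDK1, 10 uM ATP, 50 nM biotin-PDK1-4 peptide; 50 mM Tris pH 7.5, 10 mM MgCl2, 0.1% BSA, 0.01% Tween-20, 2 mM DTT, 2.5% DMSO; 3-18 h. EDTA stop; AlphaScreen, phospho-Ser/Thr antibody, overnight RT.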

A2780 cells = assay: Cell Proliferation Assay (Cell Titer Glo), A2780; format: cell-based; settings: Homo sapiens; cell proliferation, A2780 cells; read-out: CPEC50 A2780
Outline: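 Following a 3-day compound exposure (37° C., 5% CO2) of A2780 or PC3MM cells plated at 1000 per well, viability was measured by Cell Titer Glo luminescence in fresh medium, read 10 min after reagent addition.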

Compound	pIC50 (PDK1 kinase)	pEC50 (A2780 cells)
NS(=O)(=O)c1ccc(Nc2ncc3cccc(Nc4ccc(F)cc4)c3n2)cc1 [Compound 873, 4-(8-(4-fluorophenylamino)quinazolin-2-ylamino)benzenesulfonamide]	> 5.30	> 5.30
CC(C)N1CCC(Oc2ccc3cnc(Nc4ccc(S(=O)(=O)N5CCOCC5)cc4)nc3c2)CC1 [Compound 874, 7-(1-isopropylpiperidin-4-yloxy)-N-(4-(morpholinosulfonyl)phenyl)quinazolin-2-amine]	> 5.30	> 5.30
NS(=O)(=O)c1ccc(Nc2ncc3ccc(-c4ccc(NCCN5CCCC5)nc4)cc3n2)cc1 [Compound 878, 4-(7-(6-(2-(pyrrolidin-1-yl)ethylamino)pyridin-3-yl)quinazolin-2-ylamino)benzenesulfonamide]	> 5.30	> 5.30
CN1CCN(c2ccc(-c3ccc4cnc(Nc5ccc(S(N)(=O)=O)cc5)nc4c3)cn2)CC1 [Compound 879, 4-(7-(6-(4-methylpiperazin-1-yl)pyridin-3-yl)quinazolin-2-ylamino)benzenesulfonamide]	> 5.30	> 5.30
NS(=O)(=O)c1ccc(Nc2ncc3ccc(-c4ccc(N5CCOCC5)nc4)cc3n2)cc1 [Compound 881]	> 5.30	> 5.30
CN1CCN(c2cc(-c3ccc4cnc(Nc5ccc(S(N)(=O)=O)cc5)nc4c3)ccn2)CC1 [Compound 882, 4-(7-(2-(4-methylpiperazin-1-yl)pyridin-4-yl)quinazolin-2-ylamino)benzenesulfonamide]	> 5.30	> 5.30
CC(C)CCn1cc(-c2ccc3cnc(Nc4ccc(S(N)(=O)=O)cc4)nc3c2)cn1 [Compound 883, 4-(7-(1-isopentyl-1H-pyrazol-4-yl)quinazolin-2-ylamino)benzenesulfonamide]	> 5.30	> 5.30
NC(=O)c1ccc(-c2cc(F)cc3cnc(Nc4ccc(S(N)(=O)=O)cc4)nc23)cc1 [Compound 886, 4-(6-fluoro-2-(4-sulfamoylphenylamino)quinazolin-8-yl)benzamide]	> 5.30	5.00 to 5.30

The next lines start with the values.

pIC50 (PDK1 kinase)	pEC50 (A2780 cells)	Compound
> 5.30	5.00 to 5.30	NS(=O)(=O)c1ccc(Nc2ncc3ccc(-c4ccc5c(c4)CCNC5=O)c(OC4CCNCC4)c3n2)cc1 [Compound 875, 4-(7-(1-oxo-1,2,3,4-tetrahydroisoquinolin-6-yl)-8-(piperidin-4-yloxy)quinazolin-2-ylamino)benzenesulfonamide]
> 5.30	> 5.30	CC(C)Cn1cc(-c2ccc3cnc(Nc4ccc(S(N)(=O)=O)cc4)nc3c2OC2CCNCC2)cn1 [Compound 876, 4-(7-(1-isobutyl-1H-pyrazol-4-yl)-8-(piperidin-4-yloxy)quinazolin-2-ylamino)benzenesulfonamide]
> 5.30	> 5.30	NS(=O)(=O)c1ccc(Nc2ncc3ccc(-c4cnccn4)c(OC4CCNCC4)c3n2)cc1 [Compound 877, 4-(8-(piperidin-4-yloxy)-7-(pyrazin-2-yl)quinazolin-2-ylamino)benzenesulfonamide]
> 5.30	5.00 to 5.30	NS(=O)(=O)c1ccc(Nc2ncc3ccc(-c4ccc(N5CCCC5)nc4)cc3n2)cc1 [Compound 880, 4-(7-(6-(pyrrolidin-1-yl)pyridin-3-yl)quinazolin-2-ylamino)benzenesulfonamide]
> 5.30	5.00 to 5.30	NS(=O)(=O)c1ccc(Nc2ncc3cccc(-c4ccc5c(c4)CCNC5=O)c3n2)cc1 [Compound 887, 4-(8-(1-oxo-1,2,3,4-tetrahydroisoquinolin-6-yl)quinazolin-2-ylamino)benzenesulfonamide]
> 5.30	> 5.30	NS(=O)(=O)c1ccc(Nc2ncc3cc(F)cc(-c4ccc(N5CCNC(=O)C5)nc4)c3n2)cc1 [Compound 889, 4-(6-fluoro-8-(6-(3-oxopiperazin-1-yl)pyridin-3-yl)quinazolin-2-ylamino)benzenesulfonamide]
